Laboratory results from patent US20190083482A1, “PRMT5 INHIBITORS AND USES THEREOF” (Epizyme, Inc., priority 2017, published 2019).

Columns and labels:
Z-138 cell line = assay: Z-138 Proliferation Assay (Cell Titer Glo); type: cell-based; conditions: Homo sapiens, 120 h; Z-138 cells, 5 days incubation, top concentration 20 μM
Description: Z-138 Proliferation Assay
Z-138 suspension cells were purchased from ATCC (American Type Culture Collection, Manassas, Va.). RPMI/Glutamax medium, penicillin-streptomycin, heat inactivated fetal bovine serum were purchased from Life Technologies, Grand Island, N.Y., USA. V-bottom polypropylene 384-well plates were purchased from Greiner Bio-One, Monroe, N.C., USA. Cell culture 384-well white opaque plates were purchased from Perkin Elmer, Waltham, Mass., USA. Cell-Titer Glo® was purchased from Promega Corporation, Madison, Wis., USA. SpectraMax M5 plate reader was purchased from Molecular Devices LLC, Sunnyvale, Calif., USA.
Z-138 suspension cells were maintained in growth medium (RPMI 1640 supplemented with 10% v/v heat inactivated fetal bovine serum and cultured at 37° C. under 5% CO2. Under assay conditions, cells were incubated in assay medium (RPMI 1640 supplemented with 10% v/v heat inactivated fetal bovine serum and 100 units/mL penicillin-streptomycin) at 37° C. under 5% CO2.
For the assessment of the effect of compounds on the proliferation of the Z-138 cell line, exponentially growing cells were plated in 384-well white opaque plates at a density of 10,000 cells/ml in a final volume of 50 μl of assay medium. A compound source plate was prepared by performing triplicate nine-point 3-fold serial dilutions in DMSO, beginning at 10 mM (final top concentration of compound in the assay was 20 μM and the DMSO was 0.2%). A 100 nL aliquot from the compound stock plate was added to its respective well in the cell plate. […] After addition of compounds, assay plates were incubated for 5 days at 37° C., 5% CO2, relative humidity >90%. Cell viability was measured by quantitation of ATP present in the cell cultures, adding 35 μl of Cell Titer Glo® reagent to the cell plates. Luminescence was read in the SpectraMax M5 microplate reader. The concentration of compound inhibiting cell viability by 50% was determined using a 4-parametric fit of the normalized dose response curves.

PRMT5/MEP50 = target: T1, PRMT5/MEP50 (Homo sapiens, UniProt O14744); assay: PRMT5 Biochemical Assay (PRMT5/MEP50 enzyme assay on peptide substrate, 3H-SAM Flashplate); conditions: PRMT5/MEP50 4 nM, 3H-SAM 75 nM, peptide 40 nM
T1 construct: Flag-PRMT5; made in house; host or cells: Spodoptera frugiperda (SF9) insect cells, baculovirus
T1 sequence (O14744 with tags, fused parts or gaps): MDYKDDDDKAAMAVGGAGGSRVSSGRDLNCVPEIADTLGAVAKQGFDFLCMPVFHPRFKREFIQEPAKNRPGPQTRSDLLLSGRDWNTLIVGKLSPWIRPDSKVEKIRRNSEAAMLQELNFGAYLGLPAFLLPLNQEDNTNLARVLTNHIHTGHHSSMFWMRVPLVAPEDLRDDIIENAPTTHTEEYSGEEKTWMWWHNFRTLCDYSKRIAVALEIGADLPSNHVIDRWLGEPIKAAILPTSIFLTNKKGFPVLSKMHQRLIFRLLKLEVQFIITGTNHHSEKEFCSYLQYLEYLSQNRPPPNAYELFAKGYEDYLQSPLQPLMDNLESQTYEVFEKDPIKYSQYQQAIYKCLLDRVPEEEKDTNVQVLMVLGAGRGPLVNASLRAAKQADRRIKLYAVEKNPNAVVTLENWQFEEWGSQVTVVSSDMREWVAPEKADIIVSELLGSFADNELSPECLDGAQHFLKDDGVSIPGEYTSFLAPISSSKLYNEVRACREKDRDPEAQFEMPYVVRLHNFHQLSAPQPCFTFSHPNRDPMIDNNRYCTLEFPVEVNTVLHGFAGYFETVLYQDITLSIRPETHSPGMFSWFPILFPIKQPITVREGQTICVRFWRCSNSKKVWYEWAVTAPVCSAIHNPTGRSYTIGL
T1 sequence (Q9BQA1 with tags, fused parts or gaps partner limits assumed): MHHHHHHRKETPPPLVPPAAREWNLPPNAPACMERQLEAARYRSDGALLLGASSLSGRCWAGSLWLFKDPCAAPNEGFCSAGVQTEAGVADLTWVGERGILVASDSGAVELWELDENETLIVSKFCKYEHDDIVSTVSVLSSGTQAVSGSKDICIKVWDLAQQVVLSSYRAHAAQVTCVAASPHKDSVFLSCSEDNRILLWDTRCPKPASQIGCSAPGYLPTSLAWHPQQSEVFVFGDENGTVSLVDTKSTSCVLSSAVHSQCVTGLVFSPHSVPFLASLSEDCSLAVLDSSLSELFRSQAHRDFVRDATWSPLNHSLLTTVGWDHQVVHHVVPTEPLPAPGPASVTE
Description: S-adenosylmethionine (SAM), S-adenosylhomocysteine (SAH), bicine, KCl, Tween20, dimethylsulfoxide (DMSO), bovine skin gelatin (BSG), and Tris(2-carboxyethyl)phosphine hydrochloride solution (TCEP) were purchased from Sigma-Aldrich at the highest level of purity possible. ^3H-SAM was purchase from American Radiolabeled Chemicals with a specific activity of 80 C1/mmol. 384-well streptavidin Flashplates were purchased from PerkinElmer.
Peptide representative of human histone H4 residues 1-15 was synthesized with a C-terminal linker-affinity tag motif and a C-terminal amide cap by 21st Century Biochemicals.
The amplified genes were sublconed into pENTR/D/TEV (Life Technologies) and subsequently transferred by Gateway™ attL×attR recombination to pDEST8 baculvirus expression vector (Life Technologies).
Protein over-expression was accomplished by infecting exponentially growing Spodoptera frugiperda (SF9) cell culture at 1.2×10^6 cell/ml with a 5000 fold dilution of BIIC stock. Infections were carried out at 27° C. for 72 hours, harvested by centrifugation, and stored at −80° C. for purification.
Flag-PRMT5/6His-MeP50 was eluted with 300 mM Imidazole in the same buffer.
General Procedure for PRMT5/MEP50 Enzyme Assays on Peptide Substrates.
The assays were all performed in a buffer consisting of 20 mM Bicine (pH=7.6), 1 mM TCEP, 0.005% BSG, and 0.002% Tween20, prepared on the day of use. […] DMSO (1 ul) was added to Columns 11, 12, 23, 24, rows A-H for the maximum signal control and 1 ul of SAH, a known product and inhibitor of PRMT5/MEP50, was added to columns 11, 12, 23, 24, rows I-P for the minimum signal control. A cocktail (40 ul) containing the PRMT5/MEP50 enzyme and the peptide was added by Multidrop Combi (Thermo-Fisher). The compounds were allowed to incubate with PRMT5/MEP50 for 30 min at 25 degrees Celsius, then a cocktail (10 ul) containing ^3H-SAM was added to initiate the reaction (final volume=51 ul). […] The assays were stopped by the addition of non-radioactive SAM (10 ul) to a final concentration of 600 uM, which dilutes the ^3H-SAM to a level where its incorporation into the peptide substrate is no longer detectable. 50 ul of the reaction in the 384-well polypropylene plate was then transferred to a 384-well Flashplate and the biotinylated peptides were allowed to bind to the streptavidin surface for at least 1 hour before being washed three times with 0.1% Tween20 in a Biotek ELx405 plate washer. The plates were then read in a PerkinElmer TopCount plate reader to measure the quantity of ^3H-labeled peptide bound to the Flashplate surface, measured as disintegrations per minute (dpm) or alternatively, referred to as counts per minute (cpm).
Where dpm=disintegrations per minute, cmpd=signal in assay well, and min and max are the respective minimum and maximum signal controls.
Where top and bottom are the normally allowed to float, but may be fixed at 100 or 0 respectively in a 3-parameter fit. The Hill Coefficient normally allowed to float but may also be fixed at 1 in a 3-parameter fit. Y is the % inhibition and X is the compound concentration.

[1] = system: symmetric di-methyl arginine in Z-138 cells; assay: Z-138 Methylation Assay (In Cell Western for symmetric di-methyl arginine); type: cell-based; conditions: Homo sapiens, 96 hours incubation, read-out: ICW EC50
Description: Z-138 suspension cells were purchased from ATCC (American Type Culture Collection, Manassas, Va.). RPMI/Glutamax medium, penicillin-streptomycin, heat inactivated fetal bovine serum, and D-PBS were purchased from Life Technologies, Grand Island, N.Y., USA. Odyssey blocking buffer, 800 CW goat anti-rabbit IgG (H+L) antibody, and Licor Odyssey infrared scanner were purchased from Licor Biosciences, Lincoln, Nebr., USA. Symmetric di-methyl arginine antibody was purchased from EMD Millipore, Billerica, Mass., USA. 16% Paraformaldehyde was purchased from Electron Microscopy Sciences, Hatfield, Pa., USA.
Z-138 suspension cells were maintained in growth medium (RPMI 1640 supplemented with 10% v/v heat inactivated fetal bovine serum and 100 units/mL penicillin-streptomycin) and cultured at 37° C. under 5% CO2.
Cell Treatment, in Cell Western (ICW) for Detection of Symmetric Di-Methyl Arginine and DNA Content.
Z-138 cells were seeded in assay medium at a concentration of 50,000 cells per mL to a 384-well cell culture plate with 50 μL per well. Compound (100 nL) from 384 well source plates was added directly to 384 well cell plate. Plates were incubated at 37° C., 5% CO2 for 96 hours. After four days of incubation, 40 μL of cells from incubated plates were added to poly-D-lysine coated 384 well culture plates (BD Biosciences 356697). Plates were incubated at room temperature for 30 minutes then incubated at 37° C., 5% CO2 for 5 hours. After the incubation, 40 μL per well of 8% paraformaldehyde in PBS (16% paraformaldahyde was diluted to 8% in PBS) was added to each plate and incubated for 30 minutes. Plates were transferred to a Biotek 405 plate washer and washed 5 times with 100 μL per well of wash buffer (1×PBS with 0.1% Triton X-100 (v/v)). Next 30 μL per well of Odyssey blocking buffer were added to each plate and incubated 1 hour at room temperature. Blocking buffer was removed and 20 μL per well of primary antibody was added (symmetric di-methyl arginine diluted 1:100 in Odyssey buffer with 0.1% Tween 20 (v/v)) and plates were incubated overnight (16 hours) at 4° C. Plates were washed 5 times with 100 μL per well of wash buffer. Next 20 μL per well of secondary antibody was added (1:200 800 CW goat anti-rabbit IgG (H+L) antibody, 1:1000 DRAQ5 (Biostatus limited) in Odyssey buffer with 0.1% Tween 20 (v/v)) and incubated for 1 hour at room temperature. The plates were washed 5 times with 100 μL per well wash buffer then 1 time with 100 μL per well of water. Plates were allowed to dry at room temperature then imaged on the Licor Odyssey machine which measures integrated intensity at 700 nm and 800 nm wavelengths. Both 700 and 800 channels were scanned.
First, the ratio for each well was determined by:
Each plate included fourteen control wells of DMSO only treatment (minimum inhibition) as well as fourteen control wells for maximum inhibition treated with 3 μM of a reference compound (Background wells). The average of the ratio values for each control type was calculated and used to determine the percent inhibition for each test well in the plate. Reference compound was serially diluted three-fold in DMSO for a total of nine test concentrations, beginning at 3 μM. Percent inhibition was determined and IC50 curves were generated using triplicate wells per concentration of compound.

Cn1ncc2ccc(OCC(=O)NCC(O)CN3CCc4ccccc4C3)cc21 (stereo not shown) [Compound 23, N-(3-(3,4-dihydroisoquinolin-2(1H)-yl)-2-hydroxypropyl)-2-((1-methyl-1H-indazol-6-yl)oxy)acetamide]
EC50 (Z-138 cell line): 1000 to 10000 nM

Cn1cnc(-c2ccccc2OCC(=O)NCC(O)CN2CCc3ccccc3C2)c1 (stereo not shown) [Compound 153]
IC50 (PRMT5/MEP50): < 100 nM
EC50 [1]: 101 to 1000 nM
EC50 (Z-138 cell line): 10000 to 50000 nM

CN(c1ccccc1OCC(=O)NCC(O)CN1CCc2ccccc2C1)S(C)(=O)=O (stereo not shown) [Compound 155]
IC50 (PRMT5/MEP50): < 100 nM
EC50 [1]: < 100 nM
EC50 (Z-138 cell line): 1000 to 10000 nM

Cc1nn(C)c2cccc(OCC(=O)NCC(O)CN3CCc4ccccc4C3)c12 (stereo not shown) [Compound 158]
IC50 (PRMT5/MEP50): < 100 nM
EC50 [1]: 101 to 1000 nM
EC50 (Z-138 cell line): 1000 to 10000 nM

Cn1ncc2ccc(OCC(=O)NC[C@H](O)CN3CCc4ccccc4C3)cc21 [Compound 159]
IC50 (PRMT5/MEP50): < 100 nM
EC50 [1]: < 100 nM
EC50 (Z-138 cell line): 1000 to 10000 nM

Cn1ncc2ccc(OCC(=O)NC[C@@H](O)CN3CCc4ccccc4C3)cc21 [Compound 160]
EC50 [1]: 1000 to 10000 nM
EC50 (Z-138 cell line): > 20000 nM

O=C(COc1cncc(C(=O)N2CCOCC2)c1)NCC(O)CN1CCc2ccccc2C1 (stereo not shown) [Compound 161]
EC50 [1]: 1000 to 10000 nM
EC50 (Z-138 cell line): > 20000 nM

CC(=O)Nc1ccncc1OCC(=O)NCC(O)CN1CCc2ccccc2C1 (stereo not shown) [Compound 162]
EC50 [1]: 1000 to 10000 nM
EC50 (Z-138 cell line): > 20000 nM

Cc1cn(C)c2cccc(OCC(=O)NC[C@H](O)CN3CCc4ccccc4C3)c12 [Compound 163]
IC50 (PRMT5/MEP50): < 100 nM
EC50 [1]: 101 to 1000 nM
EC50 (Z-138 cell line): 1000 to 10000 nM

Cc1cn(C)c2cccc(OCC(=O)NC[C@@H](O)CN3CCc4ccccc4C3)c12 [Compound 164]
IC50 (PRMT5/MEP50): < 100 nM
EC50 [1]: < 100 nM
EC50 (Z-138 cell line): 101 to 1000 nM

O=C(NCC(O)CN1CCc2ccccc2C1)C(O)c1ccccc1 (stereo not shown) [Compound 165]
EC50 [1]: 101 to 1000 nM
EC50 (Z-138 cell line): > 20000 nM

Nc1ncnc2c(OCC(=O)NCC(O)CN3CCc4ccccc4C3)cccc12 (stereo not shown) [Compound 168]
IC50 (PRMT5/MEP50): < 100 nM
EC50 [1]: < 100 nM
EC50 (Z-138 cell line): 1000 to 10000 nM

CN(C)c1cccc(OCC(=O)NCC(O)CN2CCc3ccccc3C2)c1S(N)(=O)=O (stereo not shown) [Compound 169]
IC50 (PRMT5/MEP50): < 100 nM
EC50 [1]: < 100 nM
EC50 (Z-138 cell line): 1000 to 10000 nM

CC(NC(=O)COc1ccccc1S(N)(=O)=O)C(O)CN1CCc2ccccc2C1 (stereo not shown) [Compound 170]
IC50 (PRMT5/MEP50): < 100 nM
EC50 [1]: 101 to 1000 nM
EC50 (Z-138 cell line): 10000 to 50000 nM

O=C(COc1cncc(CN2CCOCC2)c1)NCC(O)CN1CCc2ccccc2C1 (stereo not shown) [Compound 172]
EC50 [1]: 101 to 1000 nM
EC50 (Z-138 cell line): 10000 to 50000 nM

O=C(Cc1ccc2c(c1)OCO2)NC[C@H](O)CN1CCc2ccccc2C1 [Compound 174]
EC50 [1]: 101 to 1000 nM
EC50 (Z-138 cell line): > 20000 nM

O=C(NC[C@H](O)CN1CCc2ccccc2C1)C1CNc2ccccc21 (stereo partly shown) [Compound 177]
EC50 [1]: 101 to 1000 nM
EC50 (Z-138 cell line): 10000 to 50000 nM

O=C(CC1CCc2ccccc21)NC[C@H](O)CN1CCc2ccccc2C1 (stereo partly shown) [Compound 178]
EC50 [1]: 101 to 1000 nM
EC50 (Z-138 cell line): 1000 to 10000 nM

O=C(CC1Cc2ccccc2C1)NC[C@H](O)CN1CCc2ccccc2C1 [Compound 179]
EC50 [1]: 101 to 1000 nM
EC50 (Z-138 cell line): 10000 to 50000 nM

O=C(COc1cccc2cncnc12)NCC(O)CN1CCc2ccccc2C1 (stereo not shown) [Compound 181]
IC50 (PRMT5/MEP50): < 100 nM
EC50 [1]: < 100 nM

O=C(Cc1c[nH]c2ccccc12)NC[C@H](O)CN1CCc2ccccc2C1 [Compound 182]
EC50 [1]: 101 to 1000 nM

O=C(NC[C@H](O)CN1CCc2ccccc2C1)C1COc2ccccc2O1 (stereo partly shown) [Compound 183]
EC50 [1]: 101 to 1000 nM

CN1CCN(c2cccc(OCC(=O)NC[C@@H](O)CN3CCc4ccccc4C3)c2)CC1 [Compound 190]
IC50 (PRMT5/MEP50): < 100 nM

CN(C)CCN(C)S(=O)(=O)c1ccccc1OCC(=O)NC[C@@H](O)CN1CCc2ccccc2C1 [Compound 191]
IC50 (PRMT5/MEP50): < 100 nM
